Patent publication US20170232083A1, “METHODS OF DIAGNOSIS AND TREATMENT OF CELIAC DISEASE IN CHILDREN” (priority 2014, published 2017)

Tested on: PBMC (polyclonal gluten-specific T cells) of paediatric and adult CD patients
Experiment: IFN-γ ELISpot of PBMC after 3 day oral wheat challenge (SFU, % of maximal peptide response, dominance scores, EC50; Examples 5-6)
Format: cell-based, human
Settings: for IFN-γ ELISpot response: after oral wheat challenge; for Cross-reactive T cell response: following wheat challenge
[1] = subject I (3-5yrs/6-10yrs part)
[2] = subject J (3-5yrs/6-10yrs part)
[3] = subject K (3-5yrs/6-10yrs part)
[4] = subject V (3-5yrs/6-10yrs part)
[5] = subject W (3-5yrs/6-10yrs part)
[6] = subject Y (3-5yrs/6-10yrs part)
[7] = subject five (3-5yrs/6-10yrs part)
[8] = subject seven (3-5yrs/6-10yrs part)
[9] = subject six (3-5yrs/6-10yrs part)
[10] = subject ten (3-5yrs/6-10yrs part)
[11] = subject two (3-5yrs/6-10yrs part)

QPFPQPEQPFPWQP
IFN-γ ELISpot response (patient A, 11-17 yrs, cut-off 10 SFU): 3.5 SFU
Significant response as percentage of maximal peptide SFU (patient D, max peptide 30.5 SFU): + (>70% = +)
IFN-γ ELISpot response (patient E, H, 11-17 yrs, cut-off 10 SFU): 44 SFU
Significant response as percentage of maximal peptide SFU (patient E, max peptide 224 SFU): ′ (11-20% = ′)
IFN-γ ELISpot response (patient F, 11-17 yrs, cut-off 10 SFU): 84.5 SFU
Significant response as percentage of maximal peptide SFU (patient F, max peptide 178 SFU): ′′′ (41-70% = ′′′)
IFN-γ ELISpot response (patient G, 11-17 yrs, cut-off 10 SFU): 8 SFU
IFN-γ ELISpot response (patient H (HLA-DQ2.5 homozygote), 3-5yrs, cut-off 10 SFU): 27.5 SFU
IFN-γ ELISpot response (patient H, 11-17 yrs, cut-off 10 SFU): 8.5 SFU
IFN-γ ELISpot response (patient ID not given, 11-17 yrs, cut-off 10 SFU): 67.5 SFU
Significant response as percentage of maximal peptide SFU (patient ID not given, max peptide 95 SFU): + (>70% = +)
Significant response as percentage of maximal peptide SFU (patient II, max peptide 15 SFU): + (>70% = +)
Significant response as percentage of maximal peptide SFU (patient J, max peptide 196 SFU): ′′′ (41-70% = ′′′)
Significant response as percentage of maximal peptide SFU (patient K, max peptide 53 SFU): ′′ (21-40% = ′′)
Significant response as percentage of maximal peptide SFU (patient M, max peptide 48 SFU): ′′′ (41-70% = ′′′)
IFN-γ ELISpot response (patient N, 3-5yrs, cut-off 10 SFU): 7 SFU
IFN-γ ELISpot response (patient P, 11-17 yrs, cut-off 21.6 SFU): 20 SFU
IFN-γ ELISpot response (patient Q, 11-17 yrs, cut-off 10 SFU): 63 SFU
IFN-γ ELISpot response (patient U, H, 11-17 yrs, cut-off 10 SFU): 17 SFU
Significant response as percentage of maximal peptide SFU (patient U, max peptide 81 SFU): ′′ (21-40% = ′′)
IFN-γ ELISpot response (patient V, 6-10 yrs, cut-off 10 SFU): 25 SFU
Significant response as percentage of maximal peptide SFU (patient V, max peptide 35 SFU): + (>70% = +)
IFN-γ ELISpot response (patient Y, 6-10 yrs, cut-off 10 SFU): 10 SFU
Significant response as percentage of maximal peptide SFU (patient Y, max peptide 16 SFU): ′′′ (41-70% = ′′′)
Significant response as percentage of maximal peptide SFU (patient Z, max peptide 13 SFU): + (>70% = +)
IFN-γ ELISpot response (patient eleven, 6-10 yrs, cut-off 10 SFU): 20.5 SFU
Significant response as percentage of maximal peptide SFU (patient eleven, max peptide 57 SFU): ′′ (21-40% = ′′)
Significant response as percentage of maximal peptide SFU (patient five, max peptide 48 SFU): + (>70% = +)
IFN-γ ELISpot response (patient four, 3-5yrs, cut-off 10 SFU): 28.5 SFU
Significant response as percentage of maximal peptide SFU (patient four, max peptide 44 SFU): ′′′ (41-70% = ′′′)
IFN-γ ELISpot response (patient seven, 6-10 yrs, cut-off 10.5 SFU): 11 SFU
Significant response as percentage of maximal peptide SFU (patient seven, max peptide 27 SFU): ′′′ (41-70% = ′′′)
IFN-γ ELISpot response (patient six, 3-5yrs, cut-off 10 SFU): 10 SFU
Significant response as percentage of maximal peptide SFU (patient six, max peptide 13 SFU): + (>70% = +)
IFN-γ ELISpot response (patient ten, 3-5yrs, cut-off 10 SFU): 14.5 SFU
Significant response as percentage of maximal peptide SFU (patient ten, max peptide 14.5 SFU): + (>70% = +)
IFN-γ ELISpot response (patient three, 6-10 yrs, cut-off 10.5 SFU): 95 SFU
IFN-γ ELISpot response (patient twelve, 11-17 yrs, cut-off 10 SFU): 30.5 SFU
IFN-γ ELISpot response (patient two, 3-5yrs, cut-off 10 SFU): 52.5 SFU
Significant response as percentage of maximal peptide SFU (patient two, max peptide 60 SFU): + (>70% = +)
Cross-reactive T cell response (subject A, 11-17yrs): 15 SFU
Significant response as a percentage of maximal peptide SFU (subject D, 11-17yrs): + (>70% = +)
Cross-reactive T cell response (subject D, 11-17yrs): 30.5 SFU
Significant response as a percentage of maximal peptide SFU (subject E, 11-17yrs): ′ (11-20% = ′)
Cross-reactive T cell response (subject E, 11-17yrs): 44 SFU
Significant response as a percentage of maximal peptide SFU (subject F, 11-17yrs): ′′′ (41-70% = ′′′)
Cross-reactive T cell response (subject F, 11-17yrs): 845 SFU
Cross-reactive T cell response (subject G, 11-17yrs): 8 SFU
Cross-reactive T cell response (subject H): 8.5 SFU
Cross-reactive T cell response [1]: 5.5 SFU
Cross-reactive T cell response [2]: 95- SFU
Significant response as a percentage of maximal peptide SFU (subject K): ′′ (21-40% = ′′)
Cross-reactive T cell response [3]: 18.5 SFU
Cross-reactive T cell response (subject P, 11-17yrs): 20 SFU
Significant response as a percentage of maximal peptide SFU (subject Q, 11-17yrs): ′′′ (41-70% = ′′′)
Cross-reactive T cell response (subject Q, 11-17yrs): 63 SFU
Cross-reactive T cell response (subject T, 11-17yrs): 67.5 SFU
Significant response as a percentage of maximal peptide SFU (subject U, 11-17yrs): ′′ (21-40% = ′′)
Cross-reactive T cell response (subject U, 11-17yrs): 17 SFU
Significant response as a percentage of maximal peptide SFU (subject V): + (>70% = +)
Cross-reactive T cell response [4]: 25 SFU
Cross-reactive T cell response [5]: 9 SFU
Cross-reactive T cell response [6]: 10- SFU
Significant response as a percentage of maximal peptide SFU (subject five): + (>70% = +)
Cross-reactive T cell response [7]: 40.5 SFU
Cross-reactive T cell response (subject nine, 11-17yrs): 15 SFU
Significant response as a percentage of maximal peptide SFU (subject seven): ′′ (21-40% = ′′)
Cross-reactive T cell response [8]: 11 SFU
Significant response as a percentage of maximal peptide SFU (subject six): + (>70% = +)
Cross-reactive T cell response [9]: 10 SFU
Significant response as a percentage of maximal peptide SFU (subject ten): + (>70% = +)
Cross-reactive T cell response [10]: 14.5 SFU
Significant response as a percentage of maximal peptide SFU (subject two): + (>70% = +)
Cross-reactive T cell response [11]: 52.5 SFU

QPFPQPEQPFRQQ
Cross-reactive T cell response (subject A, 11-17yrs): 1 SFU
Significant response as a percentage of maximal peptide SFU (subject D, 11-17yrs): ′′′ (41-70% = ′′′)
Cross-reactive T cell response (subject D, 11-17yrs): 15 SFU
Significant response as a percentage of maximal peptide SFU (subject E, 11-17yrs): ′ (11-20% = ′)
Cross-reactive T cell response (subject E, 11-17yrs): 37 SFU
Significant response as a percentage of maximal peptide SFU (subject F, 11-17yrs): ′ (11-20% = ′)
Cross-reactive T cell response (subject F, 11-17yrs): 21 SFU
Cross-reactive T cell response (subject G, 11-17yrs): 3 SFU
Cross-reactive T cell response (subject H): 0 SFU
Cross-reactive T cell response [1]: 4 SFU
Significant response as a percentage of maximal peptide SFU (subject J): (6-10% - ^)
Cross-reactive T cell response [2]: 15 SFU
Significant response as a percentage of maximal peptide SFU (subject K): ′′ (21-40% = ′′)
Cross-reactive T cell response [3]: 21 SFU
Cross-reactive T cell response (subject P, 11-17yrs): 16 SFU
Significant response as a percentage of maximal peptide SFU (subject Q, 11-17yrs): ′′′ (41-70% = ′′′)
Cross-reactive T cell response (subject Q, 11-17yrs): 44 SFU
Significant response as a percentage of maximal peptide SFU (subject T, 11-17yrs): ′′′ (41-70% = ′′′)
Cross-reactive T cell response (subject T, 11-17yrs): 58 SFU
Significant response as a percentage of maximal peptide SFU (subject U, 11-17yrs): ′′ (21-40% = ′′)
Cross-reactive T cell response (subject U, 11-17yrs): 21 SFU
Significant response as a percentage of maximal peptide SFU (subject V): ′′′ (41-70% = ′′′)
Cross-reactive T cell response [4]: 20 SFU
Cross-reactive T cell response [5]: 8 SFU
Cross-reactive T cell response [6]: 8 SFU
Significant response as a percentage of maximal peptide SFU (subject five): + (>70% = +)
Cross-reactive T cell response [7]: 37 SFU
Cross-reactive T cell response (subject nine, 11-17yrs): 0 SFU
Cross-reactive T cell response [8]: 6 SFU
Cross-reactive T cell response [9]: 5 SFU
Cross-reactive T cell response [10]: 6 SFU
Significant response as a percentage of maximal peptide SFU (subject two): ′′ (21-40% = ′′)
Cross-reactive T cell response [11]: 24 SFU

QPFPQPEQPFSWQ
Cross-reactive T cell response (subject A, 11-17yrs): 0 SFU
Significant response as a percentage of maximal peptide SFU (subject D, 11-17yrs): ′′′ (41-70% = ′′′)
Cross-reactive T cell response (subject D, 11-17yrs): 16 SFU
Significant response as a percentage of maximal peptide SFU (subject E, 11-17yrs): ′ (11-20% = ′)
Cross-reactive T cell response (subject E, 11-17yrs): 34 SFU
Significant response as a percentage of maximal peptide SFU (subject F, 11-17yrs): ′ (11-20% = ′)
Cross-reactive T cell response (subject F, 11-17yrs): 19 SFU
Cross-reactive T cell response (subject G, 11-17yrs): 6 SFU
Cross-reactive T cell response (subject H): 1 SFU
Cross-reactive T cell response [1]: 2 SFU
Significant response as a percentage of maximal peptide SFU (subject J): ′′′ (41-70% = ′′′)
Cross-reactive T cell response [2]: 79 SFU
Significant response as a percentage of maximal peptide SFU (subject K): ′′ (21-40% = ′′)
Cross-reactive T cell response [3]: 20 SFU
Cross-reactive T cell response (subject P, 11-17yrs): 14 SFU
Significant response as a percentage of maximal peptide SFU (subject Q, 11-17yrs): ′′ (21-40% = ′′)
Cross-reactive T cell response (subject Q, 11-17yrs): 29 SFU
Significant response as a percentage of maximal peptide SFU (subject T, 11-17yrs): ′′′ (41-70% = ′′′)
Cross-reactive T cell response (subject T, 11-17yrs): 41 SFU
Significant response as a percentage of maximal peptide SFU (subject U, 11-17yrs): ′′ (21-40% = ′′)
Cross-reactive T cell response (subject U, 11-17yrs): 18 SFU
Significant response as a percentage of maximal peptide SFU (subject V): + (>70% = +)
Cross-reactive T cell response [4]: 25 SFU
Cross-reactive T cell response [5]: 3 SFU
Cross-reactive T cell response [6]: 8 SFU
Significant response as a percentage of maximal peptide SFU (subject five): + (>70% = +)
Cross-reactive T cell response [7]: 42 SFU
Cross-reactive T cell response (subject nine, 11-17yrs): 1 SFU
Cross-reactive T cell response [8]: 6 SFU
Cross-reactive T cell response [9]: 8 SFU
Cross-reactive T cell response [10]: 0 SFU
Significant response as a percentage of maximal peptide SFU (subject two): ′′ (21-40% = ′′)
Cross-reactive T cell response [11]: 26 SFU
